According to US20250280821A1, “PERFUSION AND METABOLIC RESTORATION OF ORGANS” (Bexorg, Inc., priority 2024, published 2025):

System: tissue of the dorsomedial prefrontal cortex (dmPFC) of the brain 110
Experiment: Raman spectroscopy of brain tissue during ex-vivo perfusion with rapamycin in the perfusate
Format: in vitro ADME, human
Conditions: ex-vivo perfused brain
Excerpt: As previously discussed, the perfusion system 100 also includes a Raman spectroscopy probe 172 that is coupled to or positioned near the brain housing 102 for performing Raman spectroscopy on the tissue of the brain 110 in real-time during perfusion of the brain 110. Once the brain 110 is fluidly coupled to the organ line 144 and is positioned inside the brain housing 102, the Raman spectroscopy probe 172 is positioned on the surface of the brain 110 and can be operated periodically throughout the perfusion process to perform Raman spectroscopy on the tissue of the brain 110 in real-time as the brain is perfused. […]
The data generated by the Raman spectroscopy probe 172 can be used to determine whether the pharmaceutical compound is capable of crossing the blood-brain barrier. The pharmaceutical compound can be determined as capable of crossing the blood-brain barrier in response to detecting that one or more chemical compounds corresponding to the pharmaceutical compound are present in the tissue of the brain 110 using the Raman spectroscopy probe 172. In addition, the percentage of the pharmaceutical compound taken up and metabolized by the brain 110 can be determined based on the concentration of one or more chemical compounds corresponding to the pharmaceutical compound that is detected in the tissue of the brain 110 by the Raman spectroscopy probe 172. […]

ability to cross the blood-brain barrier of the brain (rapamycin added to perfusate by syringe pump, Raman spectroscopy of dmPFC tissue (FIG. 6)): able to cross the blood-brain barrier
SMILES: CO[C@H]1C[C@@H]2CC[C@@H](C)[C@@](O)(O2)C(=O)C(=O)N2CCCC[C@H]2C(=O)O[C@H]([C@H](C)C[C@@H]2CC[C@@H](O)[C@H](OC)C2)CC(=O)[C@H](C)/C=C(\C)[C@@H](O)[C@@H](OC)C(=O)[C@H](C)C[C@H](C)/C=C/C=C/C=C/1C [rapamycin]
concentration of rapamycin present in the brain (Raman spectroscopy of dmPFC tissue over time (FIG. 6)): continually increased until a stable concentration 604 was reached
